Data as given in article PMC2759276 (Bioorganic & medicinal chemistry, 2009).
Entries after “also recorded” stand apart in the source; their conditions may differ. Where two headings read alike, the source gives them in different places.

Assays:
VIM-2 [1] = molecular target: T1, VIM-2 (Escherichia coli, UniProt Q5U7L7); experiment: VIM-2 CCF2 kinetic assay; assay type: biochemical; details: VIM-2, CCF2 format; SD of 3 replicates
VIM-2 [2] = molecular target: T1, VIM-2; assay type: biochemical
VIM-2 [3] = molecular target: T1, VIM-2; assay type: biochemical; details: for effect of absence of zinc in the assay buffer on potency: with vs without 50 μM ZnSO4
TEM-1 = TEM-1 (Escherichia coli, UniProt P62593); experiment: TEM-1 nitrocefin assay; assay type: biochemical; details: for inhibition at 25 µM: read-out: Max Inhibition @ Tested Concentration, TEM-1 Nitrocefin; for inhibitory activity against TEM-1 (in words): highest concentration tested 25 μM
TEM-1, sequence (P62593 24-286 limits assumed): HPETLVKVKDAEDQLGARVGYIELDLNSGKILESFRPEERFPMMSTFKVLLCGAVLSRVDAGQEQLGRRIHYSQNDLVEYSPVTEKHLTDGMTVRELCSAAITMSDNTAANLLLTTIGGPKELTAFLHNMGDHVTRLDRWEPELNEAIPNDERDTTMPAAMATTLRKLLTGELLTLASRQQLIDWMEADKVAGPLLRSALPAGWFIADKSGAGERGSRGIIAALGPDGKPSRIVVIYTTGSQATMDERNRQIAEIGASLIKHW

[4] = system: resistant E. coli (BL21/VIM-2); experiment: Imipenem MIC potentiation by a single dose of inhibitor; assay type: cell-based; details: for Imipenem MIC @ 50 μM of compound: BL21+VIM-2; for potentiation of imipenem efficacy (in words): resistant E. coli (BL21/VIM-2)
AmpC = AmpC (Enterobacter cloacae, UniProt P05364); experiment: AmpC nitrocefin assay; assay type: biochemical, E.cloacae; details: for inhibition at 25 µM: read-out: Max Inhibition @ Tested Concentration, AmpC Nitrocefin; for inhibitory activity against AmpC (in words): highest concentration tested 25 μM
AmpC, sequence (P05364 21-381): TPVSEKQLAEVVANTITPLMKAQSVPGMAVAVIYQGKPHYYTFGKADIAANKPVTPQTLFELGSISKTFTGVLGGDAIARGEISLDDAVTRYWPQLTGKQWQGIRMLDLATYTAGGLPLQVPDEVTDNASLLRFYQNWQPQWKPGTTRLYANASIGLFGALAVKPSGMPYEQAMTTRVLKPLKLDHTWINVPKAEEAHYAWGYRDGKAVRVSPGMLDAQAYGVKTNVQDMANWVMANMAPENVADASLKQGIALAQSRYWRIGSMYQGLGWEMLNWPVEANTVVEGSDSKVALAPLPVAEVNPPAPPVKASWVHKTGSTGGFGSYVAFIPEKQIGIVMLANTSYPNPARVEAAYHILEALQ

IMP-1 = IMP-1 (Serratia marcescens, UniProt P52699); experiment: biochemical; assay type: biochemical; details: for inhibition at 56 µM: read-out: Max Inhibition @ Tested Concentration, IMP-1 Nitrocefin
IMP-1, sequence (P52699 19-246 limits assumed): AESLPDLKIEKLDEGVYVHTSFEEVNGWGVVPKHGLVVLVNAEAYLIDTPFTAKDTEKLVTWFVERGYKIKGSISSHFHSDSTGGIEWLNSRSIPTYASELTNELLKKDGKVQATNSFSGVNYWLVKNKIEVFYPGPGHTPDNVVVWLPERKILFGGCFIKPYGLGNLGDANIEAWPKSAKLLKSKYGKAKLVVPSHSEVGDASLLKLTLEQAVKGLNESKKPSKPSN

[5] = system: non-resistant (BL21) E. coli; experiment: MIC assay, non-resistant strain; assay type: cell-based
VIM-2 [6] = molecular target: T1, VIM-2; experiment: VIM-2 FRET; assay type: biochemical; details: @ 36 μM
BL21/VIM2 E. coli = assay type: cell-based; details: checkerboard microdilution
[7] = system: resistant (BL21/VIM-2) E. coli; assay type: cell-based
VIM-2 [8] = molecular target: T1, VIM-2; experiment: Rapid dilution experiment

Structure (SMILES): O=C(CNC(=O)c1cc2cc(Cl)c(O)cc2oc1=O)N[C@@H]1C(=O)N2C(C(=O)O)=C(CSc3ccc4c(c3)C(=O)OC43c4ccc(O)cc4Oc4cc(O)ccc43)CS[C@H]12 [CCF2]
- Km (VIM-2 [1]): 21 ± 7 µM

Structure (SMILES): C#CCCOCc1nn[nH]c1CNS(=O)(=O)c1ccc(I)cc1 [Compound 1, 4-Iodo-N-((4-((but-3-ynyloxy)methyl)-1H-1,2,3-triazol-5-yl)methyl)benzenesulfonamide]
- mechanism of inhibition (VIM-2 [2]): competitive inhibitors
- effect of absence of zinc in the assay buffer on potency (VIM-2 [3]): not significantly affected by the absence of zinc; also recorded: independent of the concentration of zinc
- IC50 (TEM-1): > 25 µM
- inhibition at 25 µM (TEM-1): 0%
- Imipenem MIC @ 50 μM of compound [4]: 1.9 mg/L
- IC50 (AmpC): > 25 µM
- inhibition at 25 µM (AmpC): 0%
- IC50 (IMP-1): > 56 µM
- activity in the IMP-1 nitrocefin assay (in words) (IMP-1): inactive
- inhibition at 56 µM (IMP-1): 0%

Structure (SMILES): COCc1nn[nH]c1CNS(=O)(=O)c1ccc(I)cc1 [Compound 2, 4-Iodo-N-((4-(methoxymethyl)-1H-1,2,3-triazol-5-yl)methyl)benzenesulfonamide]
- mechanism of inhibition (VIM-2 [2]): competitive inhibitors
- effect of absence of zinc in the assay buffer on potency (VIM-2 [3]): not significantly affected by the absence of zinc; also recorded: independent of the concentration of zinc
- IC50 (TEM-1): > 25 µM
- inhibition at 25 µM (TEM-1): 0%
- Imipenem MIC @ 50 μM of compound [4]: 1.9 mg/L
- IC50 (AmpC): > 25 µM
- inhibition at 25 µM (AmpC): 0%
- IC50 (IMP-1): > 56 µM
- activity in the IMP-1 nitrocefin assay (in words) (IMP-1): inactive
- inhibition at 56 µM (IMP-1): 0%

Structure (SMILES): O=C1c2c(O)ccc(O)c2C(=O)c2c(NCCNCCO)ccc(NCCNCCO)c21 [Mitoxantrone, 1,4-Dihydroxy-5,8-bis([2-([2-hydroxyethyl]amino)ethyl]amino)-9,10-anthracenedione]
- effect of absence of zinc in the assay buffer on potency (VIM-2 [3]): not significantly affected by the absence of zinc
- IC50 (TEM-1): > 25 µM
- inhibitory activity against TEM-1 (in words) (TEM-1): did not exhibit any inhibitory activity
- inhibition at 25 µM (TEM-1): 0%
- Imipenem MIC @ 50 μM of compound [4]: 0.2 mg/L
- potentiation of imipenem efficacy (in words) [4]: completely reverse the effects of VIM-2 on imipenem potency; also recorded: potentiate imipenem efficacy
- IC50 (AmpC): > 25 µM
- inhibitory activity against AmpC (in words) (AmpC): did not exhibit any inhibitory activity
- inhibition at 25 µM (AmpC): 0%
- IC50 (IMP-1): > 56 µM
- activity in the IMP-1 nitrocefin assay (in words) (IMP-1): did not exhibit any inhibitory activity
- activity in the IMP-1 nitrocefin assay (in words) (IMP-1; listed as mitoxantrone): inactive at the range of concentrations tested
- inhibition at 56 µM (IMP-1): 0%

Structure (SMILES): O=C(O)c1cc[c]([Hg][Cl])cc1 [pCMB, 4-chloromercuribenzoic acid]
- Compound MIC [5]: 17.9 mg/L
- Max Inhibition @ Tested Concentration, VIM-2 (CCF2) (VIM-2 [6]): NA (83% @ 36 μM)
- mechanism of inhibition (VIM-2 [2]): slowly reversible or irreversible inhibitor; also recorded: irreversible / slowly reversible
- Max Inhibition @ Tested Concentration, VIM-2 (Nitrocefin) (VIM-2 [3]; @ 15 μM): NA ^(e) (80% @ 15 μM)
- effect of absence of zinc in the assay buffer on potency (VIM-2 [3]): not significantly affected by the absence of zinc
- MIC alone (BL21/VIM2 E. coli): 17.9 mg/L
- Compound MIC [7]: 17.9 mg/L
- Max Inhibition @ Tested Concentration, TEM-1 Nitrocefin (TEM-1; @ 25 μM): 0%
- inhibitory activity against TEM-1 (in words) (TEM-1): no inhibitory activity
- IC50 (TEM-1; read-out: IC50 TEM-1 Nitrocefin): > 25 µM
- Imipenem MIC @ 50 μM of compound [4]: 0.2 mg/L
- potentiation of imipenem efficacy (in words) [4]: completely reverse the effects of VIM-2 on imipenem potency; also recorded: potentiate imipenem efficacy
- inhibition of VIM-2 (VIM-2 [8]; 24 μM, incubated 30 minutes at room temperature): 90%
- recovery of VIM-2 activity after dilution (VIM-2 [8]; after 15 minutes, 1:100 dilution from 24 μM): 16.5%
- Max Inhibition @ Tested Concentration, AmpC Nitrocefin (AmpC; @ 25 μM): 0%
- inhibitory activity against AmpC (in words) (AmpC): no inhibitory activity
- IC50 (AmpC; read-out: IC50 AmpC Nitrocefin): > 25 µM
- activity in the IMP-1 nitrocefin assay (in words) (IMP-1): modest potency; also recorded: demonstrated potency
- Max Inhibition @ Tested Concentration, IMP-1 Nitrocefin (IMP-1; @ 140 μM, 15 minutes of preincubation): NA (82% @ 140 μM)
